Measurements taken from US20100041089A1, “IMPROVED METHOD FOR DETECTING CHEMICAL […]” (priority 2006, published 2010).

Test system: yeast genes (expressed mRNA)
Assay: DNA chip measurement of expressed mRNA of yeast genes after culture with a toxic chemical substance
Type: cell-based, Saccharomyces cerevisiae S288C
Method in brief: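 Expression is given as treated/untreated fluorescence ratio on a whole-genome yeast DNA chip, a ratio of two or more being significant. Log-phase S288C cultures in YPD at 25 °C received the chemical for 2 h at a dose that slows growth without killing. mRNA was reverse-transcribed with Cy3- or Cy5-dUTP.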

SMILES: C=CC=O [(14), Acrolein]
- The level of expressed mRNA in the presence of chemical substance/The level of expressed mRNA in the absence of chemical substance (yeast gene YGL053W, cultured two hours with substance): 1.1
- The level of expressed mRNA in the presence of chemical substance/The level of expressed mRNA in the absence of chemical substance (yeast gene YGL091C, DNA repair protein genes, cultured two hours with substance): 3.1
- The level of expressed mRNA in the presence of chemical substance/The level of expressed mRNA in the absence of chemical substance (yeast gene YGL121C, cultured two hours with substance): 5.8
- The level of expressed mRNA in the presence of chemical substance/The level of expressed mRNA in the absence of chemical substance (yeast gene YGL136C, cultured two hours with substance): 2.3
- The level of expressed mRNA in the presence of chemical substance/The level of expressed mRNA in the absence of chemical substance (yeast gene YGL199C, cultured two hours with substance): 0.8
- The level of expressed mRNA in the presence of chemical substance/The level of expressed mRNA in the absence of chemical substance (yeast gene YGR043C, cultured for two hours with substance): 4.1
- The level of expressed mRNA in the presence of chemical substance/The level of expressed mRNA in the absence of chemical substance (yeast gene YGR064W, cultured two hours with the chemical substance): 2.1
- The level of expressed mRNA in the presence of chemical substance/The level of expressed mRNA in the absence of chemical substance (yeast gene YGR101W, cultured two hours with substance): 0.9
- The level of expressed mRNA in the presence of chemical substance/The level of expressed mRNA in the absence of chemical substance (yeast gene YGR110W, cultured two hours with substance): 2.8
- The level of expressed mRNA in the presence of chemical substance/The level of expressed mRNA in the absence of chemical substance (yeast gene YGR130C, cultured two hours with substance): 0.9
- The level of expressed mRNA in the presence of chemical substance/The level of expressed mRNA in the absence of chemical substance (yeast gene YGR146C, cultured two hours with substance): 1.3
- The level of expressed mRNA in the presence of chemical substance/The level of expressed mRNA in the absence of chemical substance (yeast gene YGR154C, cultured two hours with substance): 2.2
- The level of expressed mRNA in the presence of chemical substance/The level of expressed mRNA in the absence of chemical substance (yeast gene YGR209C (detoxification protein gene)): 5.0
- The level of expressed mRNA in the presence of chemical substance/The level of expressed mRNA in the absence of chemical substance (yeast gene YGR221C, cultured two hours with substance): 1.4
- The level of expressed mRNA in the presence of chemical substance/The level of expressed mRNA in the absence of chemical substance (yeast gene YHR029C, cultured two hours with substance): 3.5
- The level of expressed mRNA in the presence of chemical substance/The level of expressed mRNA in the absence of chemical substance (yeast gene YHR138C, cultured two hours with substance): 3.4
- The level of expressed mRNA in the presence of chemical substance/The level of expressed mRNA in the absence of chemical substance (yeast gene YHR179W, cultured for two hours with substance): 5.8
- The level of expressed mRNA in the presence of chemical substance/The level of expressed mRNA in the absence of chemical substance (yeast gene YHR199C, cultured two hours with substance): 2.0
- The level of expressed mRNA in the presence of chemical substance/The level of expressed mRNA in the absence of chemical substance (yeast gene YHR209W, cultured two hours with substance): 2.2
- The level of expressed mRNA in the presence of chemical substance/The level of expressed mRNA in the absence of chemical substance (yeast gene YIL015W): 5.9
- The level of expressed mRNA in the presence of chemical substance/The level of expressed mRNA in the absence of chemical substance (yeast gene YIL023C, cultured two hours with substance): 0.7
- The level of expressed mRNA in the presence of chemical substance/The level of expressed mRNA in the absence of chemical substance (yeast gene YIL024C, cultured two hours with substance): 1.5
- The level of expressed mRNA in the presence of chemical substance/The level of expressed mRNA in the absence of chemical substance (yeast gene YIL041W, cultured two hours with substance): 1.3
- The level of expressed mRNA in the presence of chemical substance/The level of expressed mRNA in the absence of chemical substance (yeast gene YIL057C, cultured two hours with the chemical substance): 1.5
- The level of expressed mRNA in the presence of chemical substance/The level of expressed mRNA in the absence of chemical substance (yeast gene YIL087C, cultured two hours with substance): 1.3
- The level of expressed mRNA in the presence of chemical substance/The level of expressed mRNA in the absence of chemical substance (yeast gene YIL117C, cultured two hours with substance): 2.6
- The level of expressed mRNA in the presence of chemical substance/The level of expressed mRNA in the absence of chemical substance (yeast gene YJL020C, cultured two hours with substance): 1.2
- The level of expressed mRNA in the presence of chemical substance/The level of expressed mRNA in the absence of chemical substance (yeast gene YJL036W, cultured two hours with substance): 1.5
- The level of expressed mRNA in the presence of chemical substance/The level of expressed mRNA in the absence of chemical substance (yeast gene YJL057C, cultured two hours with substance): 1.6
- The level of expressed mRNA in the presence of chemical substance/The level of expressed mRNA in the absence of chemical substance (yeast gene YJL066C, cultured two hours with substance): 1.0
- The level of expressed mRNA in the presence of chemical substance/The level of expressed mRNA in the absence of chemical substance (yeast gene YJL082W, cultured two hours with substance): 0.5
- The level of expressed mRNA in the presence of chemical substance/The level of expressed mRNA in the absence of chemical substance (yeast gene YJL108C, cultured two hours with substance): 1.0
- The level of expressed mRNA in the presence of chemical substance/The level of expressed mRNA in the absence of chemical substance (yeast gene YJL149W, cultured two hours with substance): 1.1
- The level of expressed mRNA in the presence of chemical substance/The level of expressed mRNA in the absence of chemical substance (yeast gene YJL151C, cultured two hours with substance): 1.3
- The level of expressed mRNA in the presence of chemical substance/The level of expressed mRNA in the absence of chemical substance (yeast gene YJL152W, cultured two hours with substance): 1.4
- The level of expressed mRNA in the presence of chemical substance/The level of expressed mRNA in the absence of chemical substance (yeast gene YJL161W, cultured two hours with substance): 2.2
- The level of expressed mRNA in the presence of chemical substance/The level of expressed mRNA in the absence of chemical substance (yeast gene YJL171C, cultured two hours with substance): 1.0
- The level of expressed mRNA in the presence of chemical substance/The level of expressed mRNA in the absence of chemical substance (yeast gene YJL186W, cultured two hours with substance): 0.8
- The level of expressed mRNA in the presence of chemical substance/The level of expressed mRNA in the absence of chemical substance (yeast gene YJR008W, cultured two hours with substance): 1.2
- The level of expressed mRNA in the presence of chemical substance/The level of expressed mRNA in the absence of chemical substance (yeast gene YJR048W, cultured for two hours with substance): 2.5
- The level of expressed mRNA in the presence of chemical substance/The level of expressed mRNA in the absence of chemical substance (yeast gene YJR054W, cultured two hours with substance): 1.2
- The level of expressed mRNA in the presence of chemical substance/The level of expressed mRNA in the absence of chemical substance (yeast gene YKL065C, cultured two hours with substance): 2.1
